According to PMC11527973, “Efficient characterization of multiple binding sites of small molecule imaging ligands on amyloid-beta, tau and alpha-synuclein” (European Journal of Nuclear Medicine and Molecular Imaging, 2024):

Experiments:
[1] = target: T1, recombinant Aβ42 fibrils (Homo sapiens, UniProt P05067); experiment: SPR binding kinetics on immobilized Aβ42 fibrils; settings: surface ZC150D, surface density 1770 RU, sum2exp model, two components per analyte
T1 construct: Recombinant Aβ42, K18-tau, full-length 2N4R tau (441 aa) and αSyn were expressed; made in house; host or cells: E. coli
Method: (§1) SPR measurements were conducted in HEPES-buffered saline (HBS, Teknova, USA) buffer at 20 °C using Biacore instruments T200 and S200 (Cytiva, Uppsala, Sweden). Aβ42, tau, and αSyn recombinant fibrils were immobilized in the flow cell of sensor chips produced by Xantec (Düsseldorf, Germany) and Cytiva by coupling fibril amine groups to sulfo-N-hydroxysuccinimide (sulfo-NHS)-activated carboxylic acid groups on the chip surface. Since no nonbinding fibril(s) were available, the reference flow cell remained empty. […]
(§2) The immobilized fibrils were stable for a few days. Kinetic constants for binding were determined by injection of a dilution series of 5–8 concentrations of ligand in HBS buffer at a flow rate of 30 µL/minute in duplicate ("full kinetics").
(§3) The data was evaluated using BiaEvaluate v2.03 software (Cytiva, Sweden). Binding kinetics were analyzed globally using different kinetic models, including 1 + 1, a sum of two exponentials model ("heterogeneous ligand" in terms of BiaEvaluate, sum2exp), and a sum of three exponentials model (sum3exp) that was created using the script editor of the software.

[2] = target: T2, recombinant full-length 2N4R tau fibrils (Homo sapiens, UniProt P10636); experiment: SPR binding kinetics on immobilized full-length 2N4R tau fibrils; settings: surface ZC150D, surface density 2900 RU, sum2exp model, two components per analyte
T2 construct: full-length 2N4R tau (441 aa); made in house; host or cells: E. coli
Method: [The source words this procedure for another variant and reports this variant under the same test.] as §1, §2, §3

[3] = target: recombinant K18 tau fibrils (Homo sapiens, UniProt P10636); experiment: Fluorescence assay of ligands with K18 tau fibrils; assay type: binding; design: made in house; host or cells: E. coli; settings: ligand bound to K18 tau fibrils; emission peaks
Text: (§4) Recombinant Aβ42, K18-tau, full-length 2N4R tau (441 aa) and αSyn were expressed and measured for binding with fluorescent ligands as described previously (details in the supplementary material).
(§5) Recombinant Aβ42, K18 tau, full-length 2N4R tau (441 aa) and αSyn were expressed and produced by E. coli as described previously. As a substrate for HRP, Pierce ECL and Western blotting substrate (Thermo Fisher Scientific, U.S.A.) were used to detect Aβ42 and αSyn. To detect K18 tau, ECL Prime Western blotting detection reagents (Cytiva, U.S.A.) were used. Images of the resulting blots were taken with an ImageQuant LAS 4000 (GE Healthcare). […] For Aβ42, the quantity was 3.7 μg because of a higher dilution. […] K18 tau was detected using a monoclonal tau antibody (anti-tau 4-repeat isoform RD4, clone 1E1/A6). Aβ42 was detected with a monoclonal Aβ antibody (clone BAM-10), and αSyn was detected using a monoclonal αSyn antibody (clone Syn211). […] After incubation of the protein solutions, fibrillization was verified by thioflavin T fluorescence assay: 45 μL of thioflavin T (5 μM, Sigma Aldrich, U.S.A.) was mixed with either 2 μL of the incubated αSyn, 5 μL of K18 tau, full-length 2N4R tau or 5 μL of Aβ42 in a 45 µL quartz cuvette (quartz […] Ultra-Micro Cell, Hellma GmbH, Germany).

[4] = target: T3, tau inclusions (AT-8/AT-100 positive) (Homo sapiens, UniProt P10636, P618L); experiment: Immunofluorescence staining and colocalization, pR5 mouse brain; settings: for M1, fraction of A overlapping B / M2, fraction of B overlapping A: Manders' coefficient, pR5 mouse
T3 construct: from tissue; host or cells: brain (cortex, hippocampus) of pR5 transgenic mice

[5] = target: T4, recombinant αSyn fibrils (Homo sapiens, UniProt P37840); experiment: Fluorescence assay of ligands with αSYN fibrils; assay type: binding; settings: ligand bound to αSYN fibrils; emission peaks
T4 construct: made in house; host or cells: E. coli
Text: as §4, §5

[6] = target: T1, recombinant Aβ42 fibrils; experiment: Fluorescence assay of ligands with Aβ42 fibrils; assay type: binding; settings: ligand bound to Aβ42 fibrils; emission peaks
Text: as §4, §5

[7] = target: T5, pS129-positive αSyn inclusions (Mus musculus, UniProt O55042); experiment: Immunofluorescence staining and colocalization, αSyn PFF-injected mouse brain; settings: for M1, fraction of A overlapping B / M2, fraction of B overlapping A: Manders' coefficient, αSyn PFF injected mouse, antibody (A) pS129, ligand (B); for Colocalization of ligand with pS129 signal: αSyn-PFF-injected mice, 12 weeks after injection, PPN, periaqueductal gray, SNc, nucleus accumbens
T5 construct: from tissue; host or cells: brain of αSyn PFF-injected C57BL/6J mice

[8] = target: T6, pS129-positive αSyn inclusions (Homo sapiens, UniProt P37840); experiment: Immunofluorescence staining and colocalization, PD patient brain slices; settings: for M1, fraction of A overlapping B / M2, fraction of B overlapping A: Manders' coefficient, sample PD, antibody (A) pS129, ligand (B); for Ligand detection of αSyn inclusions: medulla oblongata tissue slices from two PD patients, costained with pS129 antibody
T6 construct: tissue Netherlands Brain Bank; host or cells: postmortem PD brain, medulla oblongata
Text: Two PD patients, each with a clinical diagnosis confirmed by pathological examination of Lewy bodies (Braak LB 6, without tau and Aβ), were included in this study (detailed information in Table 1). Paraffin-embedded autopsied brain tissues from the medulla oblongata and cerebellum with high αSyn inclusion accumulation were obtained from the Netherlands Brain Bank (NBB), Netherlands (Table 2).
The details on the antibodies and ligand concentrations are described in STable 1. 2. Human paraffin-embedded brain sections (3 µm) were deparaffinized and rehydrated prior to antigen retrieval step (citrate buffer pH 6.0) in a microwave for 20 min at 98 °C. The sections were then costained with anti-αSyn (phospho-S129, pS129) antibody plus fluorescent secondary antibody. Ligands were incubated after secondary antibody incubation for 30 min. Sections were counterstained using 4’,6-diamidino-2-phenylindole (DAPI). Mouse brains were embedded in tissue freezing media (OCT Compound, Tissue Tek, USA) and cut into 30–40 μm thick consecutive coronal sections using a cryostat microtome (CM3050 S, Leica, Germany). All sections spanning the complete rostrocaudal extent of the brain were kept in the correct order and stored at 4 °C in cryoprotect solution (1:1:3 volume ratio of ethylenglycol, glycerol and 0.1 M PBS) until further processing. Anti-αSyn pS129 antibodies, anti-phospho-tau antibodies (AT-8, AT-100), or anti-Aβ1-16 antibody 6E10 plus fluorescent secondary antibody were used as previously described on brain slices from αSyn PFF-injected mice, arcAβ mice, and pR5 mice. Ligands were incubated with secondary antibody for 30 min. Sections were counterstained with DAPI. The brain sections were imaged at 20 × magnification using an Axio Observer Z1 microscope (whole brain slide scanner) and at 63 × magnification using a Leica SP8 confocal microscope (Leica, Germany) for colocalization. It took approximately 1–1.5 h to acquire the tilted human brain slices by a slide scanner in our experiment (20 ×). The time varied depending on the size of the sample. Lambda scans were performed using a Leica SP8 confocal microscope for the emission spectrum of the ligands on the staining as previously described to validate the signal. The images were analyzed using Qupath and Fiji (NIH, U.S.A.). Colocalization analysis of the confocal microscopy images (probe and antibody channels) was performed by using Fiji, and Manders' coefficients (M1, M2) were computed.

[9] = target: T4, recombinant αSyn fibrils; experiment: SPR binding kinetics on immobilized αSyn fibrils; settings: surface CMD200M, surface density 2940-3400 RU, sum2exp model, two components (lines) per analyte; for kon: read-out: ka, rate constant of association
Method: SPR measurements were conducted in HEPES-buffered saline (HBS, Teknova, USA) buffer at 20 °C using Biacore instruments T200 and S200 (Cytiva, Uppsala, Sweden). Aβ42, tau, and αSyn recombinant fibrils were immobilized in the flow cell of sensor chips produced by Xantec (Düsseldorf, Germany) and Cytiva by coupling fibril amine groups to sulfo-N-hydroxysuccinimide (sulfo-NHS)-activated carboxylic acid groups on the chip surface. Since no nonbinding fibril(s) were available, the reference flow cell remained empty. Different chip surfaces, including the carboxymethylated dextran surface CM5 (Cytiva, Sweden), the carboxymethyldextran hydrogel surface CMD200M, the linear polycarboxylate hydrogel surface HC30M and HC1500M, the linear polycarboxylate hydrogel (reduced charge) surface HLC30M, and the zwitterionic hydrogel surface ZC150D (all from Xantec, Germany), were tested to obtain a high immobilization density and low nonspecific adsorption of ligands. All steps for surface preparation and immobilization were conducted at a flow rate of 5 µL/min. The surface carboxylic acid groups were activated with 0.2 M sulfo-NHS and 0.1 M 1-ethyl-3-(3-dimethylaminopropyl)carbodiimide (EDC, Xantec) (CM5 and CMD200M: 0.05 M) in 5 mM 2-(N-morpholino)ethanesulfonic acid (MES buffer, abcr Swiss AG, Switzerland) at pH 5.0 for 550 s (CM5 and CMD200M: 180 s) using 5 mM MES (pH 6.5) as the running buffer. K18-tau and αSyn fibrils were diluted to 2.5–10 µM in 5 mM acetate buffer (Fisher Scientific, Switzerland) at pH 4.5 and coupled for 750 s at a flow rate of 5 µL/minute on all surfaces except for ZD150D. Surfaces were blocked with 1 M ethanolamine (Xantec, Germany) for 500 s. On the ZC150D chip, K18-tau, αSyn and Aβ42 were immobilized at 2.5–10 µM in 5 mM MES, pH 6.5, for 750 s to a surface activated with 0.5 M EDC and 0.1 M sulfo-NHS for 600 s in 5 mM MES, pH 6.5. Finally, the surface was blocked with 1 M glycine in 10 mM MES, pH 6.5.

[10] = target: T1, recombinant Aβ42 fibrils; design: method as in PMID 27767229; settings: read-out: EC50, competition with [^3H]X-34; cited from earlier work
[11] = antibody (A) AT-100, ligand (B)

T1 sequence (P05067 672-713 limits assumed): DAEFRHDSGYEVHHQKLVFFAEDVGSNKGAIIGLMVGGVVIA
T3 sequence (P10636 1-441 isoform P10636-8 P301L): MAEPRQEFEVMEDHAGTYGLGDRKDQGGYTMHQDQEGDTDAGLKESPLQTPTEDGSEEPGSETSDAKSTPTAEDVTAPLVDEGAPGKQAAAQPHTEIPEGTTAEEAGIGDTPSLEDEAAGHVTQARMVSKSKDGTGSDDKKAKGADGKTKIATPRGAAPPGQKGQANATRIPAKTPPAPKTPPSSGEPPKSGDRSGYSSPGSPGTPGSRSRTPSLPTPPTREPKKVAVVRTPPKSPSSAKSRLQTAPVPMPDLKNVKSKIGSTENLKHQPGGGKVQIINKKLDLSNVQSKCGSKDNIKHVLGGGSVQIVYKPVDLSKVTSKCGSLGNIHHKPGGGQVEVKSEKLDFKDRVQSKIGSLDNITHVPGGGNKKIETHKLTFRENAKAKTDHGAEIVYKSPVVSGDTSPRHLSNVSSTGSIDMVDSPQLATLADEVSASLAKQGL
Chain of recombinant K18 tau fibrils (P10636 561-685 limits assumed): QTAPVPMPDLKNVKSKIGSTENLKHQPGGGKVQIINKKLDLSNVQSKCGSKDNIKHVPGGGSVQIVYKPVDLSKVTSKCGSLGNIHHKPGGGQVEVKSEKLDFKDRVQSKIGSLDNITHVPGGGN
T2 sequence (P10636 1-441 isoform P10636-8): as the sequence (P10636 1-441 isoform P10636-8 P301L) above, with L301P counted along it

Compound	Emission wavelength [3]	M1, fraction of A overlapping B ([4]; antibody (A) AT-8, ligand (B))	M2, fraction of B overlapping A ([4]; antibody (A) AT-8, ligand (B))	M1, fraction of A overlapping B [4, 11]	M2, fraction of B overlapping A [4, 11]	Emission wavelength [5]	Emission wavelength [6]	M1, fraction of A overlapping B [7]	M2, fraction of B overlapping A [7]	Colocalization of ligand with pS129 signal [7]	M1, fraction of A overlapping B [8]	M2, fraction of B overlapping A [8]	Ligand detection of αSyn inclusions [8]	ka, rate constant of association [9]	kon [9]	ka, rate constant of association [1]	ka, rate constant of association [2]	Ligand detection of tau inclusions ([4]; pR5 mice, cortex and hippocampus, costained with AT-8)	EC50 [10]
Cc1c(OCC(F)(F)F)ccnc1C[S+]([O-])c1nc2ccccc2[nH]1 (stereo not drawn) [Lan, lansoprazole]	–	–	–	–	–	–	–	–	–	–	–	–	–	–	–	lower than 10^3 M^−1 s^−1	lower than 10^3 M^−1 s^−1	–	–
CC[n+]1c(/C=C/C=C/c2ccc(N(C)C)cc2)sc2ccccc21 [PBB5]	688 nm	0.39	0.09	0.024	0.018	690 nm	695 nm	–	–	–	–	–	–	–	–	–	–	confirmed the presence of PBB5 in tau inclusions	–

Second part, led by results:

Emission wavelength [3]	M1, fraction of A overlapping B ([4]; antibody (A) AT-8, ligand (B))	M2, fraction of B overlapping A ([4]; antibody (A) AT-8, ligand (B))	M1, fraction of A overlapping B [4, 11]	M2, fraction of B overlapping A [4, 11]	Emission wavelength [5]	Emission wavelength [6]	M1, fraction of A overlapping B [7]	M2, fraction of B overlapping A [7]	Colocalization of ligand with pS129 signal [7]	M1, fraction of A overlapping B [8]	M2, fraction of B overlapping A [8]	Ligand detection of αSyn inclusions [8]	ka, rate constant of association [9]	kon [9]	Compound	ka, rate constant of association [1]	ka, rate constant of association [2]	Ligand detection of tau inclusions ([4]; pR5 mice, cortex and hippocampus, costained with AT-8)	EC50 [10]
–	–	–	–	–	–	–	0.839	0.838	Colocalization	–	–	–	–	–	O=C(O)Cc1cc(-c2ccc(-c3cc(CC(=O)O)c(-c4ccc(C(=O)O)s4)s3)s2)sc1-c1ccc(C(=O)O)s1 [HS-84]	–	–	–	–
640 nm	0.164	0.279	–	–	643 nm	650 nm	0.673	0.84	Colocalization	0.81	0.866	bound to pS129-positive αSyn inclusions	1.45E + 05 M^−1 s^−1	288000 M⁻¹ s⁻¹	O=C(O)Cc1cc(-c2ccc(-c3cc(CC(=O)O)c(-c4ccc(C(=O)O)s4)s3)c3nsnc23)sc1-c1ccc(C(=O)O)s1 [HS-169]	–	–	–	–
–	0.215	0.07	0.459	0.16	–	–	–	–	–	0.404	0.4	bound to pS129-positive αSyn inclusions	111000 M⁻¹ s⁻¹	162000 M⁻¹ s⁻¹	O=C(O)Cc1cc(-c2ccc(-c3ccc(C(=O)O)s3)s2)sc1-c1ccc(-c2sc(-c3ccc(-c4ccc(C(=O)O)s4)s3)cc2CC(=O)O)s1 [h-FTAA, Hepta-formylthiophene acetic acid]	–	–	–	~0.25 µM
